Measurements as given in US8344008B2 (Janssen Pharmaceutica NV, priority 2007, dated 2013).

The compounds below were run against T1, recombinant human LTA4 hydrolase (rhLTA4H) (Homo sapiens, UniProt P09960) (assay: Recombinant Human LTA4 Hydrolase Assay for LTA4 Hydrolase Inhibitor Activity). Conditions: average of results obtained; LTB4 quantified by enzyme-linked immunoassay.
T1 construct: made in house; host or cells: Spodoptera frugiperda (Sf-9) cells, baculovirus (pFastBac1)
T1 sequence (P09960 1-611): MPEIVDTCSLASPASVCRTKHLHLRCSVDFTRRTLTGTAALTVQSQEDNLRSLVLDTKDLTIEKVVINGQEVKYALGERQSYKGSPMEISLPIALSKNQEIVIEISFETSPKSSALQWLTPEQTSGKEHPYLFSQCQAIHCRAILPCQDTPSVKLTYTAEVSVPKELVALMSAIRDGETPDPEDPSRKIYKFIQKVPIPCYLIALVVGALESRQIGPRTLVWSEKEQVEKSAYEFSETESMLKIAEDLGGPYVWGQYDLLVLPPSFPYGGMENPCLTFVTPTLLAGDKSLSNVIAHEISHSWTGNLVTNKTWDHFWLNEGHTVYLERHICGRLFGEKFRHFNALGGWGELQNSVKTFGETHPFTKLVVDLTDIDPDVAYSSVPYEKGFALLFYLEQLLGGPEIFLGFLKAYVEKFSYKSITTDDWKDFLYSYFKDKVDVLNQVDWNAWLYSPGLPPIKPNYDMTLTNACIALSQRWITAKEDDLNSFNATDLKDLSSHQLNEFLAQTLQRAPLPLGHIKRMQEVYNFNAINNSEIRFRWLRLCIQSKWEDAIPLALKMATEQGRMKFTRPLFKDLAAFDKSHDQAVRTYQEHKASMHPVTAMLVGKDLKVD
Type: biochemical
Protocol: Biological Methods: Recombinant Human LTA4 Hydrolase Assay for LTA4 Hydrolase Inhibitor Activity
Compounds of the present invention were tested for LTA4 hydrolase inhibitor activity against recombinant human LTA4 hydrolase (rhLTA4H). Vectors were prepared and used to express rhLTA4H essentially as follows: LTA4 hydrolase encoding DNA was amplified by polymerase chain reaction (PCR) using a human placental cDNA library as a template. Oligonucleotide primers for the PCR reaction were based on the 5′-end, and the complement of the 3′-end, of the published nucleotide sequence for the coding region of the human LTA4 hydrolase gene (C. D. Funk et al., Proc. Natl. Acad. Sci. USA 1987, 84:6677-6681). The amplified 1.9 kb DNA fragment encoding LTA4 hydrolase was isolated and cloned into the pFastBac1 vector (Invitrogen). Recombinant baculovirus was generated as described by the manufacturer, and used to infect Spodoptera frugiperda (Sf-9) cells. Recombinant LTA4 hydrolase enzyme was purified from the infected Sf-9 cells essentially as described by J. K. Gierse et al. (Protein Expression and Purification 1993, 4:358-366). The purified enzyme solution was adjusted to contain 0.29 mg/mL LTA4 hydrolase, 50 mM Tris (pH 8.0), 150 mM NaCl, 5 mM dithiothreitol, 50% glycerol, and EDTA-free Complete protease inhibitor cocktail (Roche). The specific activity of the enzyme was about 3.8 μmol/min/mg.
LTA4 substrate was prepared from the methyl ester of LTA4 (Cayman Chemical) by treatment with 67 equiv of NaOH under nitrogen at rt for 40 min. The LTA4 substrate in its free acid form was kept frozen at −80° C. until needed. Each compound was diluted to different concentrations in assay buffer (0.1 M potassium phosphate (pH 7.4), 5 mg/mL fatty acid free BSA) containing 10% DMSO. A 25-uL aliquot of each compound dilution was incubated for 10 min at rt with an equal volume of assay buffer containing 36 ng of recombinant human LTA4H. The solution was then adjusted to 200 μL with assay buffer. LTA4 (free acid) was thawed and diluted in assay buffer to a concentration of 357 ng/mL, and 25 μL (9 ng) of LTA4 substrate was added to the reaction mixture (total volume=225 μL) at time zero. Each reaction was carried out at rt for 10 min. The reaction was stopped by diluting 10 μL of the reaction mixture with 200 μL of assay buffer. LTB4 was quantified in the diluted sample by a commercially available enzyme-linked immunoassay (Cayman Chemical Co.), as recommended by the manufacturer. Positive controls, under essentially identical conditions but without addition of an inhibitor compound, and negative controls, containing all assay components except enzyme, were routinely run in each experiment. […]
Results for the compounds tested in this assay are presented in Table 1 as an average of results obtained.

Ki | Structure (SMILES)
73 nM | O=C(CO)N1C[C@@H]2C[C@H]1CN2CCc1cccc(Oc2nc3ccccc3s2)c1 [Example 20, (S,S)-1-(5-{2-[3-(Benzothiazol-2-yloxy)-phenyl]-ethyl}-2,5-diaza-bicyclo[2.2.1]hept-2-yl)-2-hydroxy-ethanone]
13 nM | COCC(=O)N1C[C@H]2C[C@@H]1CN2Cc1ccc(Oc2nc3ccccc3s2)cc1 [Example 21, (R,R)-1-{5-[4-(Benzothiazol-2-yloxy)-benzyl]-2,5-diaza-bicyclo[2.2.1]hept-2-yl}-2-methoxy-ethanone]
52 nM | CC(C)(O)C(=O)N1C[C@H]2C[C@@H]1CN2Cc1ccc(Oc2nc3ccccc3s2)cc1 [Example 24, (R,R)-1-{5-[4-(Benzothiazol-2-yloxy)-benzyl]-2,5-diaza-bicyclo[2.2.1]hept-2-yl}-2-hydroxy-2-methyl-propan-1-one]
77 nM | NCC(=O)N1C[C@H]2C[C@@H]1CN2Cc1ccc(Oc2nc3ccccc3s2)cc1 [Example 29, (R,R)-2-Amino-1-{5-[4-(benzothiazol-2-yloxy)-benzyl]-2,5-diaza-bicyclo[2.2.1]hept-2-yl}-ethanone]
3 nM | NC(=O)N1C[C@@H]2C[C@H]1CN2Cc1ccc(Oc2nc3ccccc3s2)cc1 [Example 32, (S,S)-5-[4-(Benzothiazol-2-yloxy)-benzyl]-2,5-diaza-bicyclo[2.2.1]heptane-2-carboxylic acid amide]
3 nM | NC(=O)N1C[C@@H]2C[C@H]1CN2CCc1ccc(Oc2nc3ccccc3s2)cc1 [Example 38, (S,S)-5-{2-[4-(Benzothiazol-2-yloxy)-phenyl]-ethyl}-2,5-diaza-bicyclo[2.2.1]heptane-2-carboxylic acid amide]
38 nM | NC(=O)N1C[C@@H]2C[C@H]1CN2CCOc1ccc(Oc2nc3ccccc3s2)cc1 [Example 40, (S,S)-5-{2-[4-(Benzothiazol-2-yloxy)-phenoxy]-ethyl}-2,5-diaza-bicyclo[2.2.1]heptane-2-carboxylic acid amide]
15 nM | COCC(=O)N1C[C@@H]2C[C@H]1CN2Cc1ccc(Oc2nc3ccccc3s2)cc1 [Example 41, (S,S)-1-{5-[4-(Benzothiazol-2-yloxy)-benzyl]-2,5-diaza-bicyclo[2.2.1]hept-2-yl}-2-methoxy-ethanone]
190 nM | CS(=O)(=O)N1C[C@@H]2C[C@H]1CN2Cc1ccc(Cc2nc3ccccc3s2)cc1 [Example 45, (S,S)-2-[4-(5-Methanesulfonyl-2,5-diaza-bicyclo[2.2.1]hept-2-ylmethyl)-benzyl]-benzothiazole]

The remaining lines, values behind:

Structure (SMILES) | Ki
COCC(=O)N1C[C@@H]2C[C@H]1CN2CCOc1ccc(Oc2nc3ccccc3s2)cc1 [Example 22, (S,S)-1-(5-{2-[4-(Benzothiazol-2-yloxy)-phenoxy]-ethyl}-2,5-diaza-bicyclo[2.2.1]hept-2-yl)-2-methoxy-ethanone] | 10 nM
O=C(CO)N1C[C@@H]2C[C@H]1CN2CCOc1ccc(Oc2nc3ccccc3s2)cc1 [Example 23, (S,S)-1-(5-{2-[4-(Benzothiazol-2-yloxy)-phenoxy]-ethyl}-2,5-diaza-bicyclo[2.2.1]hept-2-yl)-2-hydroxy-ethanone] | 26 nM
CC(C)(O)C(=O)N1C[C@@H]2C[C@H]1CN2CCOc1ccc(Oc2nc3ccccc3s2)cc1 [Example 25, (S,S)-1-(5-{2-[4-(Benzothiazol-2-yloxy)-phenoxy]-ethyl}-2,5-diaza-bicyclo[2.2.1]hept-2-yl)-2-hydroxy-2-methyl-propan-1-one] | 8 nM
O=C(N1C[C@H]2C[C@@H]1CN2Cc1ccc(Oc2nc3ccccc3s2)cc1)C1(O)CC1 [Example 26, (R,R)-{5-[4-(Benzothiazol-2-yloxy)-benzyl]-2,5-diaza-bicyclo[2.2.1]hept-2-yl}-(1-hydroxy-cyclopropyl)-methanone] | 37 nM
O=C(N1C[C@@H]2C[C@H]1CN2CCOc1ccc(Oc2nc3ccccc3s2)cc1)C1(O)CC1 [Example 27, (S,S)-(5-{2-[4-(Benzothiazol-2-yloxy)-phenoxy]-ethyl}-2,5-diaza-bicyclo[2.2.1]hept-2-yl)-(1-hydroxy-cyclopropyl)-methanone] | 1 nM
CC(C)(C)OC(=O)NCC(=O)N1C[C@H]2C[C@@H]1CN2Cc1ccc(Oc2nc3ccccc3s2)cc1 [Example 28, (R,R)-(2-{5-[4-(Benzothiazol-2-yloxy)-benzyl]-2,5-diaza-bicyclo[2.2.1]hept-2-yl}-2-oxo-ethyl)-carbamic acid tert-butyl ester] | 88 nM
CC(C)(C)OC(=O)NCC(=O)N1C[C@@H]2C[C@H]1CN2CCOc1ccc(Oc2nc3ccccc3s2)cc1 [Example 30, (S,S)-[2-(5-{2-[4-(Benzothiazol-2-yloxy)-phenoxy]-ethyl}-2,5-diaza-bicyclo[2.2.1]hept-2-yl)-2-oxo-ethyl]-carbamic acid tert-butyl ester] | 16 nM
NCC(=O)N1C[C@@H]2C[C@H]1CN2CCOc1ccc(Oc2nc3ccccc3s2)cc1 [Example 31, (S,S)-2-Amino-1-(5-{2-[4-(benzothiazol-2-yloxy)-phenoxy]-ethyl}-2,5-diaza-bicyclo[2.2.1]hept-2-yl)-ethanone] | 76 nM
NC(=O)N1C[C@@H]2C[C@H]1CN2Cc1cccc(Oc2nc3ccccc3s2)c1 [Example 33, (S,S)-5-[3-(Benzothiazol-2-yloxy)-benzyl]-2,5-diaza-bicyclo[2.2.1]heptane-2-carboxylic acid amide] | 164 nM
NC(=O)N1C[C@H]2C[C@@H]1CN2Cc1ccc(Oc2nc3ccccc3s2)cc1 [Example 34, (R,R)-5-[4-(Benzothiazol-2-yloxy)-benzyl]-2,5-diaza-bicyclo[2.2.1]heptane-2-carboxylic acid amide] | 7 nM
NC(=O)N1C[C@@H]2C[C@H]1CN2Cc1ccc(Cc2nc3ccccc3s2)cc1 [Example 35, (S,S)-5-(4-Benzothiazol-2-ylmethyl-benzyl)-2,5-diaza-bicyclo[2.2.1]heptane-2-carboxylic acid amide] | 93 nM
NC(=O)N[C@H]1C[C@H]2CC[C@@H](C1)N2Cc1ccc(Cc2nc3ccccc3s2)cc1 [Example 36, meso-endo-[8-(4-Benzothiazol-2-ylmethyl-benzyl)-8-aza-bicyclo[3.2.1]oct-3-yl]-urea] | 94 nM
NC(=O)N[C@H]1C[C@H]2CC[C@@H](C1)N2Cc1ccc(Cc2nc3ccccc3o2)cc1 [Example 37, meso-endo-[8-(4-Benzooxazol-2-ylmethyl-benzyl)-8-aza-bicyclo[3.2.1]oct-3-yl]-urea] | 44 nM
NC(=O)N1C[C@@H]2C[C@H]1CN2CCc1cccc(Oc2nc3ccccc3s2)c1 [Example 39, (S,S)-5{2-[3-(Benzothiazol-2-yloxy)-phenyl]-ethyl}2,5-diaza-bicyclo[2.2.1]heptane-2-carboxylic acid amide] | 100 nM
COCC(=O)N1C[C@@H]2C[C@H]1CN2CCc1ccc(Oc2nc3ccccc3s2)cc1 [Example 42] | 34 nM
COCC(=O)N1C[C@@H]2C[C@H]1CN2CCc1cccc(Oc2nc3ccccc3s2)c1 [Example 43] | 442 nM
O=C(CO)N1C[C@H]2C[C@@H]1CN2Cc1ccc(Oc2nc3ccccc3s2)cc1 [Example 44, (R,R)-1-{5-[4-(Benzothiazol-2-yloxy)-benzyl]-2,5-diaza-bicyclo[2.2.1]hept-2-yl}-2-hydroxy-ethanone] | 38 nM
CS(=O)(=O)N1C[C@H]2C[C@@H]1CN2Cc1ccc(Oc2nc3ccccc3s2)cc1 [Example 46, (R,R)-2-[4-(5-Methanesulfonyl-2,5-diaza-bicyclo[2.2.1]hept-2-ylmethyl)-phenoxy]-benzothiazole] | 32 nM
